Key:
Type in all cases: functional
Pseudomonas aeruginosa [1] = assay: Antibacterial activity against Pseudomonas aeruginosa 260-97103 infected in Galleria mellonella larvae assessed as survival of larvae at 100 mg/kg treated at 3 hrs post-infection in presence of chloramphenicol and measured after 18 hrs relative to control
Pseudomonas aeruginosa [2] = assay: Antibacterial activity against Pseudomonas aeruginosa 260-97103 infected in Galleria mellonella larvae assessed as survival of larvae at 75 mg/kg treated at 3 hrs post-infection in presence of doxycycline and measured after 18 hrs relative to control
Pseudomonas aeruginosa [3] = assay: Antibacterial activity against Pseudomonas aeruginosa 100036 assessed as fractional inhibitory concentration index incubated for 18 hrs in presence of minocycline by broth microdilution assay
Pseudomonas aeruginosa [4] = assay: Antibacterial activity against Pseudomonas aeruginosa 259-96918 assessed as potentiation of chloramphenicol-induced antibacterial activity by measuring chloramphenicol MIC at 9.8 uM incubated for 18 hrs in presence of chloramphenicol by broth microdilution assay (reference value: 1024 ug/ml)
Pseudomonas aeruginosa [5] = assay: Antibacterial activity against Pseudomonas aeruginosa 101885 assessed as fractional inhibitory concentration incubated for 18 hrs in presence of rifampicin by broth microdilution assay
Pseudomonas aeruginosa [6] = assay: Antibacterial activity against Pseudomonas aeruginosa 262-101856 assessed as fractional inhibitory concentration index incubated for 18 hrs in presence of tigecycline by broth microdilution assay
Pseudomonas aeruginosa [7] = assay: Antibacterial activity against Pseudomonas aeruginosa 101885 assessed as fractional inhibitory concentration incubated for 18 hrs in presence of tigecycline by broth microdilution assay
Pseudomonas aeruginosa [8] = assay: Antibacterial activity against Pseudomonas aeruginosa 101885 assessed as fractional inhibitory concentration index incubated for 18 hrs in presence of rifampicin by broth microdilution assay
Pseudomonas aeruginosa [9] = assay: Antibacterial activity against Pseudomonas aeruginosa 260-97103 assessed as fractional inhibitory concentration index incubated for 18 hrs in presence of rifampicin by broth microdilution assay
Pseudomonas aeruginosa [10] = assay: Antibacterial activity against Pseudomonas aeruginosa 262-101856 assessed as potentiation of doxycycline-induced antibacterial activity by measuring doxycycline MIC at 9.8 uM incubated for 18 hrs in presence of doxycycline by broth microdilution assay (reference value: 1024 ug/ml)
Pseudomonas aeruginosa [11] = assay: (§1) Potentiation of chloramphenicol-induced antibacterial activity against Pseudomonas aeruginosa 101885 assessed as fold change in chloramphenicol MIC at 9.8 uM incubated for 18 hrs in presence of chloramphenicol by broth microdilution assay relative to control
Pseudomonas aeruginosa [12] = assay: Antibacterial activity against Pseudomonas aeruginosa 101243 assessed as fractional inhibitory concentration index incubated for 18 hrs in presence of minocycline by broth microdilution assay
Pseudomonas aeruginosa [13] = assay: Antibacterial activity against Pseudomonas aeruginosa 101243 assessed as fractional inhibitory concentration incubated for 18 hrs in presence of minocycline by broth microdilution assay
Pseudomonas aeruginosa [14] = assay: Antibacterial activity against Pseudomonas aeruginosa 260-97103 infected in Galleria mellonella larvae assessed as survival of larvae at 75 mg/kg treated at 3 hrs post-infection in presence of doxycycline and measured after 24 hrs relative to control
Pseudomonas aeruginosa [15] = assay: Potentiation of doxycycline-induced antibacterial activity against Pseudomonas aeruginosa 101885 assessed as fold change in doxycycline MIC at 9.8 uM incubated for 18 hrs in presence of doxycycline by broth microdilution assay relative to control
Pseudomonas aeruginosa [16] = assay: Antibacterial activity against Pseudomonas aeruginosa 259-96918 assessed as fractional inhibitory concentration index incubated for 18 hrs in presence of rifampicin by broth microdilution assay
Pseudomonas aeruginosa [17] = assay: Potentiation of doxycycline-induced antibacterial activity against Pseudomonas aeruginosa 101243 assessed as fold change in doxycycline MIC at 9.8 uM incubated for 18 hrs in presence of doxycycline by broth microdilution assay relative to control
Pseudomonas aeruginosa [18] = assay: Antibacterial activity against Pseudomonas aeruginosa 264-101354 assessed as fractional inhibitory concentration index incubated for 18 hrs in presence of rifampicin by broth microdilution assay
Pseudomonas aeruginosa [19] = assay: Antibacterial activity against Pseudomonas aeruginosa 101885 assessed as fractional inhibitory concentration index incubated for 18 hrs in presence of tigecycline by broth microdilution assay
Pseudomonas aeruginosa [20] = assay: Antibacterial activity against Pseudomonas aeruginosa 101243 assessed as fractional inhibitory concentration index incubated for 18 hrs in presence of rifampicin by broth microdilution assay
Pseudomonas aeruginosa [21] = assay: Antibacterial activity against Pseudomonas aeruginosa 259-96918 assessed as fractional inhibitory concentration incubated for 18 hrs in presence of rifampicin by broth microdilution assay
Pseudomonas aeruginosa [22] = assay: Antibacterial activity against Pseudomonas aeruginosa 260-97103 assessed as fractional inhibitory concentration incubated for 18 hrs in presence of rifampicin by broth microdilution assay
Pseudomonas aeruginosa [23] = assay: Potentiation of doxycycline-induced antibacterial activity against Pseudomonas aeruginosa 262-101856 assessed as fold change in doxycycline MIC at 9.8 uM incubated for 18 hrs in presence of doxycycline by broth microdilution assay relative to control
Pseudomonas aeruginosa [24] = assay: as §1, with “PAO750 harboring MexAB-OprM, MexCD-OprJ, MexEF-OprN, Mex JK, MexXY and the OM protein OpmH deletion mutant” for “101885”, “<=9.8” for “9.8”, “assay” for “assay relative to control”; settings: dose microM <=9.8
Pseudomonas aeruginosa [25] = assay: Antibacterial activity against Pseudomonas aeruginosa 262-101856 assessed as reduction in bacterial growth by measuring doxycycline MIC at 8 ug/ml incubated for 18 hrs in presence of doxycycline by broth microdilution assay (reference value: 1024 ug/ml); settings: dose 8 µg/ml
Pseudomonas aeruginosa [26] = assay: Antibacterial activity against Pseudomonas aeruginosa 260-97103 assessed as fractional inhibitory concentration incubated for 18 hrs in presence of doxycycline by broth microdilution assay
Pseudomonas aeruginosa [27] = assay: Antibacterial activity against Pseudomonas aeruginosa 264-101354 assessed as reduction in bacterial growth by measuring chloramphenicol MIC at 8 ug/ml incubated for 18 hrs in presence of chloramphenicol by broth microdilution assay (reference value: 4096 ug/ml); settings: dose 8 µg/ml
Pseudomonas aeruginosa [28] = assay: Antibacterial activity against Pseudomonas aeruginosa 260-97103 assessed as reduction in bacterial growth by measuring doxycycline MIC at 8 ug/ml incubated for 18 hrs in presence of doxycycline by broth microdilution assay (reference value: 16 ug/ml); settings: dose 8 µg/ml
Pseudomonas aeruginosa [29] = assay: Antibacterial activity against Pseudomonas aeruginosa 264-101354 assessed as reduction in bacterial growth by measuring chloramphenicol MIC at 4 ug/ml incubated for 18 hrs in presence of chloramphenicol by broth microdilution assay (reference value: 4096 ug/ml); settings: dose 4 µg/ml
Pseudomonas aeruginosa [30] = assay: Antibacterial activity against Pseudomonas aeruginosa 259-96918 assessed as reduction in bacterial growth by measuring chloramphenicol MIC at 2 ug/ml incubated for 18 hrs in presence of chloramphenicol by broth microdilution assay (reference value: 1024 ug/ml); settings: dose 2 µg/ml
Pseudomonas aeruginosa [31] = assay: Antibacterial activity against Pseudomonas aeruginosa 101885 assessed as potentiation of doxycycline-induced antibacterial activity by measuring doxycycline MIC at 7.6 uM incubated for 18 hrs in presence of doxycycline by broth microdilution assay (reference value: 64 ug/ml)
Pseudomonas aeruginosa [32] = assay: Potentiation of doxycycline-induced antibacterial activity against Pseudomonas aeruginosa 259-96918 assessed as fold change in doxycycline MIC at 7.6 uM incubated for 18 hrs in presence of doxycycline by broth microdilution assay relative to control

## CO[C@H]1/C=C/O[C@@]2(C)Oc3c(C)c(O)c4c(O)c(c(/C=N/N5CCN(Cc6cn(CCCCCCO[C@@H]7[C@@H](O[C@H]8O[C@H](CO)[C@@H](O)[C@H](N)[C@H]8O)[C@H](N)C[C@H](N)[C@H]7O[C@H]7O[C@H](CN)[C@@H](O)C[C@H]7N)nn6)CC5)c(O)c4c3C2=O)NC(=O)/C(C)=C\C=C\[C@H](C)[C@H](O)[C@@H](C)[C@@H](O)[C@@H](C)[C@H](OC(C)=O)[C@@H]1C.Cl.Cl.Cl.Cl.Cl
Pseudomonas aeruginosa [1]
  survival at 100 mg/kg: 72%
Pseudomonas aeruginosa [2]
  survival at 75 mg/kg: 75%
Pseudomonas aeruginosa [3]
  fractional inhibitory concentration index (FICI): 0.13
Pseudomonas aeruginosa [4]
  MIC: 256 µg/mL
Pseudomonas aeruginosa [5]
  FIC: 0.063
Pseudomonas aeruginosa [6]
  fractional inhibitory concentration index (FICI): <0.19
Pseudomonas aeruginosa [7]
  FIC: 0.063
Pseudomonas aeruginosa [8]
  fractional inhibitory concentration index (FICI): 0.08
Pseudomonas aeruginosa [9]
  fractional inhibitory concentration index (FICI): <0.16
Pseudomonas aeruginosa [10]
  MIC: 8 µg/mL
Pseudomonas aeruginosa [11]
  fold change (FC): 4
Pseudomonas aeruginosa [12]
  fractional inhibitory concentration index (FICI): <0.31
Pseudomonas aeruginosa [13]
  FIC: <0.063
Pseudomonas aeruginosa [14]
  survival at 75 mg/kg: 55%
Pseudomonas aeruginosa [15]
  fold change (FC): 4
Pseudomonas aeruginosa [16]
  fractional inhibitory concentration index (FICI): <0.25
Pseudomonas aeruginosa [17]
  fold change (FC): 4
Pseudomonas aeruginosa [18]
  fractional inhibitory concentration index (FICI): 0.27
Pseudomonas aeruginosa [19]
  fractional inhibitory concentration index (FICI): 0.19
Pseudomonas aeruginosa [20]
  fractional inhibitory concentration index (FICI): 0.56
Pseudomonas aeruginosa [21]
  FIC: <0.125
Pseudomonas aeruginosa [22]
  FIC: <0.125
Pseudomonas aeruginosa [23]
  fold change (FC): 4
Pseudomonas aeruginosa [24]
  fold change (FC): 4

## NC[C@H]1O[C@H](O[C@H]2[C@H](O)[C@@H](O[C@H]3O[C@H](CO)[C@@H](O)[C@H](N)[C@H]3O)[C@H](N)C[C@@H]2N)[C@H](N)C[C@@H]1O [TOBRAMYCIN]
Pseudomonas aeruginosa [25]
  MIC: 1020 µg/mL
Pseudomonas aeruginosa [26]
  FIC: 0.5
Pseudomonas aeruginosa [27]
  MIC: 4100 µg/mL
Pseudomonas aeruginosa [28]
  MIC: 16 µg/mL

## CO[C@H]1/C=C/O[C@@]2(C)Oc3c(C)c(O)c4c(O)c(c(/C=N/N5CCN(C)CC5)c(O)c4c3C2=O)NC(=O)/C(C)=C\C=C\[C@H](C)[C@H](O)[C@@H](C)[C@@H](O)[C@@H](C)[C@H](OC(C)=O)[C@@H]1C [RIFAMPIN]
Pseudomonas aeruginosa [29]
  MIC: 4100 µg/mL
Pseudomonas aeruginosa [30]
  MIC: 1020 µg/mL

## CO[C@H]1/C=C/O[C@@]2(C)Oc3c(C)c(O)c4c(O)c(c(/C=N/N5CCN(Cc6cn(CCCCCCCCCCCCO[C@@H]7[C@@H](O[C@H]8O[C@H](CO)[C@@H](O)[C@H](N)[C@H]8O)[C@H](N)C[C@H](N)[C@H]7O[C@H]7O[C@H](CN)[C@@H](O)C[C@H]7N)nn6)CC5)c(O)c4c3C2=O)NC(=O)/C(C)=C\C=C\[C@H](C)[C@H](O)[C@@H](C)[C@@H](O)[C@@H](C)[C@H](OC(C)=O)[C@@H]1C.O=C(O)C(F)(F)F.O=C(O)C(F)(F)F.O=C(O)C(F)(F)F.O=C(O)C(F)(F)F.O=C(O)C(F)(F)F
Pseudomonas aeruginosa [31]
  MIC: 2 µg/mL
Pseudomonas aeruginosa [32]
  fold change (FC): 4

From ChEMBL document CHEMBL4715829, “Heterodimeric Rifampicin-Tobramycin conjugates break intrinsic resistance of Pseudomonas aeruginosa to doxycycline and chloramphenicol in vitro and in a Galleria mellonella in vivo model” (Eur J Med Chem, 2019)
